This note sets out measurements from patent US10526389B2, “Peptides and combinations of peptides for use in immunotherapy against lung cancer, including NSCLC and other cancers” (Immatics Biotechnologies GmbH, priority 2015, dated 2020).

Assay [1] relates to CD8+ T cells. Description: In vitro immunogenicity of HLA-A*24 peptides (CD8+ T-cell priming with aAPCs, multimer staining). Type of assay: cell-based, human. As for the experimental part: (§1) In order to obtain information regarding the immunogenicity of the TUMAPs of the present invention, the inventors performed investigations using an in vitro T-cell priming assay based on repeated stimulations of CD8+ T cells with artificial antigen presenting cells (aAPCs) loaded with peptide/MHC complexes and anti-CD28 antibody.
(§2) Generation of pMHC/anti-CD28 coated beads, T-cell stimulations and readout was performed in a highly defined in vitro system using four different pMHC molecules per stimulation condition and 8 different pMHC molecules per readout condition.
(§3) The purified co-stimulatory mouse IgG2a anti human CD28 Ab 9.3 (Jung et al., 1987) was chemically biotinylated using Sulfo-N-hydroxysuccinimidobiotin as recommended by the manufacturer (Perbio, Bonn, Germany). Beads used were 5.6 μm diameter streptavidin coated polystyrene particles (Bangs Laboratories, Illinois, USA).
(§4) 800.000 beads/200 μl were coated in 96-well plates in the presence of 4×12.5 ng different biotin-pMHC, washed and 600 ng biotin anti-CD28 were added subsequently in a volume of 200 μl. Stimulations were initiated in 96-well plates by co-incubating 1×10^6 CD8+ T cells with 2×10^5 washed coated beads in 200 μl TCM supplemented with 5 ng/ml IL-12 (PromoCell) for 3 days at 37° C. Half of the medium was then exchanged by fresh TCM supplemented with 80 U/ml IL-2 and incubating was continued for 4 days at 37° C. This stimulation cycle was performed for a total of three times. For the pMHC multimer readout using 8 different pMHC molecules per condition, a two-dimensional combinatorial coding approach was used as previously described (Andersen et al., 2012) with minor modifications encompassing coupling to 5 different fluorochromes. Finally, multimeric analyses were performed by staining the cells with Live/dead near IR dye (Invitrogen, Karlsruhe, Germany), CD8-FITC antibody clone SK1 (BD, Heidelberg, Germany) and fluorescent pMHC multimers. For analysis, a BD LSRII SORP cytometer equipped with appropriate lasers and filters was used. Peptide specific cells were calculated as percentage of total CD8+ cells. Evaluation of multimeric analysis was done using the FlowJo software (Tree Star, Oregon, USA). In vitro priming of specific multimer+CD8+ lymphocytes was detected by comparing to negative control stimulations.
Exemplary flow cytometry results after TUMAP-specific multimer staining for 3 peptides of the invention are shown in FIGS. 3A-3E together with corresponding negative controls.

Assay [2] has as its system CD8+ T cells. Description: In vitro immunogenicity of HLA-A*02 peptides (CD8+ T-cell priming with aAPCs, multimer staining). Type of assay: cell-based, human.
Text: as §1
In order to perform in vitro stimulations by artificial antigen presenting cells loaded with peptide-MHC complex (pMHC) and anti-CD28 antibody, the inventors first isolated CD8+ T cells from fresh HLA-A*02 leukapheresis products via positive selection using CD8 microbeads (Miltenyi Biotec, Bergisch-Gladbach, Germany) of healthy donors obtained from the University clinics Mannheim, Germany, after informed consent.
PBMCs and isolated CD8+ lymphocytes were incubated in T-cell medium (TCM) until use consisting of RPMI-Glutamax (Invitrogen, Karlsruhe, Germany) supplemented with 10% heat inactivated human AB serum (PAN-Biotech, Aidenbach, Germany), 100 U/ml Penicillin/100 μg/ml Streptomycin (Cambrex, Cologne, Germany), 1 mM sodium pyruvate (CC Pro, Oberdorla, Germany), 20 μg/ml Gentamycin (Cambrex). 2.5 ng/ml IL-7 (PromoCell, Heidelberg, Germany) and 10 U/ml IL-2 (Novartis Pharma, Nurnberg, Germany) were also added to the TCM at this step.
as §2, §3, §4

“IQGAP1-001 (TYAALNSKATF; listed as Homo sapiens)”: in the assay on CD8+ T cells [1], the “in vitro immunogenicity: donors” value is recorded as “+ (<20% = +)” and the “in vitro immunogenicity: wells” value was “+ (<20% = +)”.
With “PPTC-001 (HYFNTPFQL; listed as Homo sapiens)”, in the assay with CD8+ T cells [1], the “in vitro immunogenicity: donors” value was “++++ (>= 70% = ++++)” and the “in vitro immunogenicity: wells” value is “++ (20%-49% = ++)”.
Consider “YYTKGFALLNF (listed as Homo sapiens) [SEQ ID No. 29]”, for which, in the assay with CD8+ T cells [1], the “in vitro immunogenicity: donors” value is “+++ (50%-69% = +++)” and the “in vitro immunogenicity: wells” value was “+ (<20% = +)”.
For “VFMKDGFFYF (listed as Homo sapiens) [SEQ ID No. 34]” the same measures were “++ (20%-49% = ++)” and “+ (<20% = +)”.
Consider “RYLDSLKAIVF (listed as Homo sapiens) [SEQ ID No. 28]”, for which, in the assay on CD8+ T cells [1], the “in vitro immunogenicity: donors” value is listed as “++++ (>= 70% = ++++)” and the “in vitro immunogenicity: wells” value is on record as “+ (<20% = +)”.
As to “ALVQDLAKA (listed as Homo sapiens) [SEQ ID No. 131]”, in the assay with CD8+ T cells [2], the “in vitro immunogenicity: donors” value is on record as “++++ (>= 70% = ++++)” and the “in vitro immunogenicity: wells” value is “++ (20%-49% = ++)”.
Taken in the same sequence, the figures for “TLFPVRLLV (listed as Homo sapiens) [SEQ ID No. 97]” were “++++ (>= 70% = ++++)” and “+++ (50%-69% = +++)”.
Consider “SLQGSIMTV (listed as Homo sapiens) [SEQ ID No. 6]”, for which, in the assay with CD8+ T cells [2], the “in vitro immunogenicity: donors” value is reported as “++++ (>= 70% = ++++)” and the “in vitro immunogenicity: wells” value is listed as “++ (20%-49% = ++)”.
Turning to “KIFDEILVNA (listed as Homo sapiens) [SEQ ID No. 144]”, in the assay with CD8+ T cells [2], the “in vitro immunogenicity: donors” value is listed as “++ (20%-49% = ++)” and the “in vitro immunogenicity: wells” value was “+ (<20% = +)”.
On to “KIQEMQHFL (listed as Homo sapiens) [SEQ ID No. 116]”, for which, in the assay on CD8+ T cells [2], the “in vitro immunogenicity: donors” value is given as “++++ (>= 70% = ++++)” and the “in vitro immunogenicity: wells” value is “+ (<20% = +)”.
As for “SF3B3-001 (ELDRTPPEV; listed as Homo sapiens)”, in the assay with CD8+ T cells [2], the “in vitro immunogenicity: donors” value is listed as “++++ (>= 70% = ++++)” and the “in vitro immunogenicity: wells” value is on record as “++ (20%-49% = ++)”.
For “IVDDITYNV (listed as Homo sapiens) [SEQ ID No. 119]” the same measures were “++++ (>= 70% = ++++)” and “++ (20%-49% = ++)”.
Consider “TMEM43-001 (KLLSDPNYGV; listed as Homo sapiens)”, for which, in the assay with CD8+ T cells [2], the “in vitro immunogenicity: donors” value is given as “++++ (>= 70% = ++++)” and the “in vitro immunogenicity: wells” value is given as “+ (<20% = +)”.
For “SILEHQIQV (listed as Homo sapiens) [SEQ ID No. 106]” the same measures were “+ (<20% = +)” and “+ (<20% = +)”.
For “CSNK2A2-001 (VLSSGLTAA; listed as Homo sapiens)” the same measures were “+ (<20% = +)” and “+ (<20% = +)”.
On to “FZD-001 (VLAPLFVYL; listed as Homo sapiens)”, for which, in the assay with CD8+ T cells [2], the “in vitro immunogenicity: donors” value is recorded as “++++ (>= 70% = ++++)” and the “in vitro immunogenicity: wells” value was “+++ (50%-69% = +++)”.
Taken in the same sequence, the figures for “ILIDWLVQV (listed as Homo sapiens) [SEQ ID No. 117]” were “++++ (>= 70% = ++++)” and “++ (20%-49% = ++)”.
Taken in the same sequence, the figures for “ADAM8-001 (KLLTEVHAA; listed as Homo sapiens)” were “++++ (>= 70% = ++++)” and “+ (<20% = +)”.
Taken in the same sequence, the figures for “YVYQNNIYL (listed as Homo sapiens) [SEQ ID No. 115]” were “++++ (>= 70% = ++++)” and “+ (<20% = +)”.
In the case of “COL6A3-003 (NLLDLDYEL; listed as Homo sapiens)”, in the assay on CD8+ T cells [2], the “in vitro immunogenicity: donors” value was “++++ (>= 70% = ++++)” and the “in vitro immunogenicity: wells” value is “+ (<20% = +)”.
As to “CDK4-001 (TLWYRAPEV; listed as Homo sapiens)”, in the assay on CD8+ T cells [2], the “in vitro immunogenicity: donors” value is listed as “++++ (>= 70% = ++++)” and the “in vitro immunogenicity: wells” value is listed as “++++ (>= 70% = ++++)”.
Take “COL6A3-007 (FLYDVVKSL; listed as Homo sapiens)”: in the assay with CD8+ T cells [2], the “in vitro immunogenicity: donors” value was “++++ (>= 70% = ++++)” and the “in vitro immunogenicity: wells” value is recorded as “+ (<20% = +)”.
For “MXRA5-002 (GLTDNIHLV; listed as Homo sapiens)” the same measures were “++++ (>= 70% = ++++)” and “+ (<20% = +)”.
For DROSHA-001 (AVVEFLTSV) the same measures were “++++ (>= 70% = ++++)” and “+ (<20% = +)”.
Turning to “PRPF3-001 (AMGIAPPKV; listed as Homo sapiens)”, in the assay on CD8+ T cells [2], the “in vitro immunogenicity: donors” value is given as “++++ (>= 70% = ++++)” and the “in vitro immunogenicity: wells” value is reported as “++++ (>= 70% = ++++)”.
On to “LIFDLGGGTFDV (listed as Homo sapiens) [SEQ ID No. 16]”, for which, in the assay on CD8+ T cells [2], the “in vitro immunogenicity: donors” value is listed as “+++ (50%-69% = +++)” and the “in vitro immunogenicity: wells” value was “+ (<20% = +)”.
Taken in the same sequence, the figures for “COL12A1-002 (FLVDGSWSV; listed as Homo sapiens)” were “++ (20%-49% = ++)” and “+ (<20% = +)”.
Turning to “KRT-006 (TLLQEQGTKTV; listed as Homo sapiens)”, in the assay on CD8+ T cells [2], the “in vitro immunogenicity: donors” value is listed as “++ (20%-49% = ++)” and the “in vitro immunogenicity: wells” value is given as “+ (<20% = +)”.
For “TNC-001 (AMTQLLAGV; listed as Homo sapiens)” the same measures were “++ (20%-49% = ++)” and “+ (<20% = +)”.
For “YLNVQVKEL (listed as Homo sapiens) [SEQ ID No. 11]” the same measures were “++++ (>= 70% = ++++)” and “+ (<20% = +)”.
With “DIO2-001 (ALYDSVILL; listed as Homo sapiens)”, in the assay with CD8+ T cells [2], the “in vitro immunogenicity: donors” value is recorded as “+ (<20% = +)” and the “in vitro immunogenicity: wells” value is “+ (<20% = +)”.
On to “TGFBI-001 (ALFVRLLALA; listed as Homo sapiens)”, for which, in the assay on CD8+ T cells [2], the “in vitro immunogenicity: donors” value is recorded as “++++ (>= 70% = ++++)” and the “in vitro immunogenicity: wells” value is “++ (20%-49% = ++)”.
Take “TACC3-001 (KLVEFDFLGA; listed as Homo sapiens)”: in the assay on CD8+ T cells [2], the “in vitro immunogenicity: donors” value is listed as “+++ (50%-69% = +++)” and the “in vitro immunogenicity: wells” value was “+ (<20% = +)”.
In the case of “COL6A3-010 (KLLPYIVGV; listed as Homo sapiens)”, in the assay with CD8+ T cells [2], the “in vitro immunogenicity: donors” value is listed as “++++ (>= 70% = ++++)” and the “in vitro immunogenicity: wells” value was “++ (20%-49% = ++)”.
Taken in the same sequence, the figures for “CERC-001 (KLSWDLIYL; listed as Homo sapiens)” were “++++ (>= 70% = ++++)” and “+++ (50%-69% = +++)”.
Regarding “IVDRTTTVV (listed as Homo sapiens) [SEQ ID No. 12]”, in the assay with CD8+ T cells [2], the “in vitro immunogenicity: donors” value is listed as “++++ (>= 70% = ++++)” and the “in vitro immunogenicity: wells” value is “++++ (>= 70% = ++++)”.
Regarding “ALTSTLISV (listed as Homo sapiens) [SEQ ID No. 5]”, in the assay with CD8+ T cells [2], the “in vitro immunogenicity: donors” value is on record as “++++ (>= 70% = ++++)” and the “in vitro immunogenicity: wells” value is “+ (<20% = +)”.
As to “DKC-001 (ALFQRPPLI; listed as Homo sapiens)”, in the assay with CD8+ T cells [2], the “in vitro immunogenicity: donors” value is “++++ (>= 70% = ++++)” and the “in vitro immunogenicity: wells” value is listed as “++ (20%-49% = ++)”.
Taken in the same sequence, the figures for “ERO-001 (LLLEILHEI; listed as Homo sapiens)” were “+++ (50%-69% = +++)” and “+ (<20% = +)”.
Taken in the same sequence, the figures for “RLDDLKMTV (listed as Homo sapiens) [SEQ ID No. 125]” were “++++ (>= 70% = ++++)” and “+ (<20% = +)”.
Take “RLLDSVSRL (listed as Homo sapiens) [SEQ ID No. 121]”: in the assay on CD8+ T cells [2], the “in vitro immunogenicity: donors” value is “++++ (>= 70% = ++++)” and the “in vitro immunogenicity: wells” value was “++ (20%-49% = ++)”.
